Data from patent US11202815B2, “Composition for preventing, treating or improving prostate disease containing acanthopanax sessiliflorus, phragmites rhizome, and pinus densiflora extracts as active ingredient” (GENOME & MEDICINE CO., LTD., priority 2017, dated 2021).

Tested on: 5α-reductase type 2 (SRD5A2)
Assay: Western blotting of 5α-reductase type 2 (SRD5A2) protein expression level
Format: cell-based
Conditions: 0.40 mM, cultured for 24 hours, FIG. 8
Experimental: 5α-reductase had total three types of subtypes (types 1, 2 and 3), in which types 1 and 3 have been studied for diseases such as male hair loss or acne and type 2 was directly associated with benign prostatic hyperplasia.
As a result, in Example 6, a 5α-reductase type 2 (SRD5A2) protein expression level was analyzed by Western blotting to confirm 5α-reductase inhibitory activity.
Specifically, the cells were divided at a concentration of 2.0×10^5 cell/well and treated with 100 μg/ml of the Acanthopanax sessiliflorus extract, 600 μg/ml of the Pinus densiflora extract, 600 μg/ml of the Phragmites rhizome extract, or 350 μg/ml of the complex extract (Extract 4) obtained by mixing the extracts at 4:2:1 in a PRMI1640 medium containing 1% fetal bovine serum (FBS), and then cultured for 24 hours.
Finasteride, which has been sold as a 5α-reductase inhibitor on the market, was used as a positive control.
Then, the cultured cells were lysed, filtered with a 0.45 μm mesh, and subjected to Western blotting according to a procedure shown in FIG. 7.
Specifically, a primary antibody (Anti-SRD5A2, Sigma) was diluted to 1:200 and treated, and a secondary antibody (m-IgGP-HRP, Santa Cruz) was diluted to 1:3000 and treated, and then the expression levels of 5α-reductase type 2 according to treatment of each extract and each compound were confirmed.

SMILES | expression levels of 5α-reductase type 2
COc1cc([C@@H]2OC[C@@H]3[C@H]2CO[C@H]3c2cc(OC)c(O[C@@H]3O[C@H](CO)[C@@H](O)[C@H](O)[C@H]3O)c(OC)c2)cc(OC)c1O[C@@H]1O[C@H](CO)[C@@H](O)[C@H](O)[C@H]1O [acanthoside D] | significantly reduced
O=C(O)/C=C/c1ccc(O)cc1 [p-coumaric acid] | significantly reduced
